This is an account of results in patent publication US20250275964A1, “METHODS OF INHIBITING LIVER-TYPE GLUTAMINASE, GLS2” (CORNELL UNIVERSITY, priority 2019, published 2025).

The subject of one data set is HCC38 cells. Description: 6-day cell proliferation assay, HCC38. Type of data set: cell-based, human. The following applies: HCC38, proliferation over 6 days. The procedure: (§1) Human breast cancer cell lines MCF7, BT-474, T-47D, MDA-MB-453, MDA-MB-231, Hs 578T, HCC38, SK-BR-3, and DU4475 were purchased from the American Type Culture Collection (ATCC) and no additional cell authentication was performed. The TSE human breast cancer cell line was supplied by Dr. Steven Abcouwer (University of Michigan). All breast cancer cells were cultured at 37° C. under a 5% CO2 atmosphere in RPMI 1640 medium containing 2 mM glutamine (Gibco) and supplemented with 10% fetal bovine serum (FBS) (Gibco). The 293T cell line (ATCC) used for generating lentivirus particles was cultured as above but using DMEM, high glucose (Gibco).
(§2) Culture medium was added to 12-well plates (1 ml/well) and wells were seeded with cells at Day 0 as follows. MCF7, T-47D, BT-474, HCC38 cells: […] cells/well. MDA-MB-453 and MDA-MB-231 cells: 1×10^4 cells/well. TSE and Hs 578T cells: 0.3×10^4 cells/well. After 16 hours, culture medium was replaced with fresh medium supplemented with appropriate concentrations of inhibitors and was subsequently replaced every 48 hours. On Day 6 cells were trypsinized and suspended in an appropriate volume of culture medium, and the total number of cells per well was determined using a hemocytometer or a TC20 Automated Cell Counter (Bio-Rad).

Data set [1] concerns TSE cells carrying the plasmid vector only. Description: 6-day cell proliferation assay, TSE vector only. Type of data set: cell-based, human. As to conditions: 6 days. The method, then:
as §2
(§3) Vectors for expressing human GAC or GLS2 in breast cancer cell lines were based on pCDNA3.1/V5-His TOPO (Thermo Fisher Scientific), with the appropriate gene sub-cloned in and the tag switched to HA-tag or myc-tag for immunofluorescence experiments. Vectors pQE80-GAC-72-598 and pQE80-GLS2-38-602, for expressing the processed forms of human GAC (residues 72 to 598) or GLS2 (residues 38 to 602) in E. coli, were described in Huang et al., “Characterization of the Interactions of Potent Allosteric Inhibitors with Glutaminase C, a Key Enzyme in Cancer Cell Glutamine Metabolism,” J. Biol. Chem. 293:3535-3545 (2018), which is hereby incorporated by reference in its entirety.
(§4) For 60 mm dish format. […]

Another data set relates to MCF7 cells. In words: 6-day cell proliferation assay, MCF7. Type of data set: cell-based, human. As to conditions: MCF7, proliferation over 6 days. The procedure:
as §1, §2

Data set [2] concerns MDA-MB-231 cells carrying the plasmid vector only. Description: 6-day cell proliferation assay, MDA-MB-231 vector only. Type of data set: cell-based, human. As to conditions: 6 days. The procedure:
as §2, §3, §4

Data set [3] relates to TSE cells stably expressing GLS2. Description: 6-day cell proliferation assay, TSE stably expressing GLS2. Type of data set: cell-based, human. The method, then: as §2, §3
For 60 mm dish format. 0.2 ml Opti-MEM (Gibco) containing […] of the appropriate DNA construct, along with 0.2 ml Opti-MEM containing 12 μl Lipofectamine 2000 (Invitrogen), were separately incubated at room temperature for 5 min. The two solutions were combined and incubated for an additional 20 min, mixed with 1.6 ml culture medium and added to cells. After 5 hours incubation at 37° C. the transfection mixture was replaced with fresh culture medium, and cells were then incubated for an additional 48 hours to allow for ectopic expression of GLS or GLS2. To select for cells stably expressing the DNA construct, culture medium supplemented with 500 μg/ml G-418 disulfate (Research Products International) was added and replaced every 2 days for 2-3 weeks until isolated colonies ˜2 mm in diameter were present. Individual colonies were transferred to a 12-well plate (1 colony per well) using sterile blotting paper soaked in trypsin solution and were then cultured in medium supplemented with 250 μg/ml G-418 disulfate. All colonies were screened by western blot for ectopic expression, and positive clones were maintained in medium supplemented with 250 μg/ml G-418 disulfate.

Data set [4] concerns the target T1, recombinant full-length human GLS (GAC splice variant) (Homo sapiens, UniProt O94925).
T1 construct: processed forms of human GAC (residues 72 to 598); inferred from pQE80 vector and Ni-NTA/imidazole purification; made in house; host or cells: E. coli BL21(DE3)
Description: Real-time recombinant glutaminase activity assay, GLS. Type of data set: biochemical. The following applies: different concentrations.
Description: Real-time monitoring of glutaminase activity through NADH production was performed on a Cary Eclipse fluorescence spectrometer. The excitation and emission wavelengths were set at 340 nm and 460 nm, respectively. […] Then, 100 μl of either 100 nM GAC or 500 nM GLS2 was added to this mixture and the fluorescence emission was monitored in real time. After 30 s, 200 μl of a mixture of glutamine and K2HPO4 was added such that the final concentrations of K2HPO4 and glutamine were 100 mM and 20 mM, respectively. The initial velocity of glutamine hydrolysis was obtained from the slopes of the linear portion of the kinetic curve.

Data set [5] is described as follows: Gross toxicity in treated mice. Type of data set: in vivo. The following applies: 10 mg/kg body weight, three times weekly for three weeks. The procedure:
All experiments involving mice were carried out according to protocols approved by the Institutional Animal Care and Use Committee at Cornell University. In all cases, 6-8 week old female NOD.Cg-Prkdcscid Il2rg^tm1Wjl/SzJ (NSG) mice (The Jackson Laboratory) were used. For xenograft experiments, a suspension of MDA-MB-453 breast cancer cells (or derivative cell lines stably expressing shRNAs) was mixed 1:1 with Matrigel Matrix (BD Biosciences) to give a final concentration of 3×10^6 cells per 100 μl, and 3×10^6 cells were immediately injected into each of the two flanks of 6-8 week old female NOD.Cg-Prkdc^scid Il2rg^tm1Wjl/SzJ (NSG) mice (n=3 mice per condition). Tumor sizes were measured using calipers, and estimated volumes were calculated using the formula V=(π/6)×length×width^2, as described previously (Tomayko et al., “Determination of Subcutaneous Tumor Size in Athymic (Nude) Mice,” Cancer Chemother Pharmacol. 24:148-154 (1989), which is hereby incorporated by reference in its entirety). For experiments using MDA-MB-453 cells stably expressing shRNAs, mice were sacrificed after 6 weeks. For 968 treatment studies, when tumors of 1-2 mm diameter were detected, the mice were randomly divided into two groups and intraperitoneal (IP) injections of 968 (10 mg/kg) solution or carrier solution were initiated and carried out three times weekly. […]

T1 sequence (O94925 72-598 isoform O94925-3): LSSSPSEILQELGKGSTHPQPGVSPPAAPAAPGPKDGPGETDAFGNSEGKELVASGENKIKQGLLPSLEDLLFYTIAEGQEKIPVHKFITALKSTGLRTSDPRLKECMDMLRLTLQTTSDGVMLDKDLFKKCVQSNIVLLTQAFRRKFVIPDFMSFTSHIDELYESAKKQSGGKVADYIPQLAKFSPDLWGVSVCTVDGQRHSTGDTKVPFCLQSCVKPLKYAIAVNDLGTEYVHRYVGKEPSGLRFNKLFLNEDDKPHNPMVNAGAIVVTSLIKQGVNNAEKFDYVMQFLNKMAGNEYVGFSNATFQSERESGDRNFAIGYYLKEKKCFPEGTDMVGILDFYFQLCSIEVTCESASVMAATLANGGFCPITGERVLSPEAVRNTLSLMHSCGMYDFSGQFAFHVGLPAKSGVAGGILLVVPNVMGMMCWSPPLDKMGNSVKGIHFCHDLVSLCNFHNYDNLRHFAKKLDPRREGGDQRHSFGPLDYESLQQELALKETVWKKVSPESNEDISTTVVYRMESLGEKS

For the molecule `O=C(Cc1ccccc1)Nc1nnc(CCSCCc2nnc(NC(=O)Cc3ccccc3)s2)s1` [BPTES], the EC50 is 4.7 µM in the data set on HCC38 cells; 4 µM in data set [1]; about 20 µM with MCF7 cells; 1.3 µM in data set [2]; over 20 µM in data set [3] (TSE GLS2 clone 1, 6 days); over 20 µM in data set [3] (TSE GLS2 clone 2, 6 days). In addition, the EC50 in data set [3] (TSE with ectopic expression of GLS2, 6 days) is over 20 µM.
As for `CN(C)c1ccc(C2Nc3ccc4ccccc4c3C3=C2C(=O)CC(C)(C)C3)cc1Br` (stereo not drawn) [Compound 968], the EC50 in the data set with HCC38 cells was 4 µM; in data set [1] it was 2 µM; in the data set on MCF7 cells, 4 µM; in data set [2], 2 µM; in data set [3] (TSE GLS2 clone 1, 6 days), 7 µM; in data set [3] (TSE GLS2 clone 2, 6 days) it was 6 µM. The “inhibition of recombinant GLS activity” value in data set [4] is recorded as “inhibited”. Further, in data set [5], the toxicity result is listed as “no gross evidence of toxicity”.
